Data from paper PMC3965853 (Cancer chemotherapy and pharmacology, 2014).
Values joined by “and” are separate entries in the source; they are usually repeats but may differ in a detail not shown here. Equal values may be shown once. “Also recorded” adds a separate entry of the source.

Assays:
[1] = tested on: platinum refractory/resistant ovarian cancer; conditions: lapatinib in combination with topotecan, group of 18 patients; cited from earlier work
[2] = tested on: relapsed/refractory ovarian cancer; conditions: topotecan and lapatinib, 35 patients evaluable; cited from earlier work
refractory solid tumors = experiment: Antitumor response assessment; assay type: in vivo, patients
[3] = Topotecan pharmacokinetics in plasma and urine without and with erlotinib; assay type: in vivo, patients; conditions: for CLrenal, Mean (SD) / CLrenal, Median / CLrenal, Range / CL, Mean (SD) / CL, Median / CL, Range / Dosage-normalized AUC, Range: total topotecan; for CLrenal, Mean (SD) / CLrenal, Median / CLrenal, Range: n 13; for CL, Mean (SD) / CL, Median / CL, Range / Dosage-normalized AUC, Range: n 19
[4] = 30 min iv infusion days 1 to 5 of 21-day cycle, with 150 mg oral erlotinib daily
[5] = all patients n = 28, topotecan + erlotinib 150 mg
[6] = topotecan 0.75 mg/m^2 + erlotinib 150 mg, n = 8
[7] = topotecan 1.0 mg/m^2 + erlotinib 150 mg, n = 14
[8] = topotecan 1.25 mg/m^2 + erlotinib 150 mg, n = 6

SMILES: CS(=O)(=O)CCNCc1ccc(-c2ccc3ncnc(Nc4ccc(OCc5cccc(F)c5)c(Cl)c4)c3c2)o1 [lapatinib]
- partial response, patients [1]: One partial response
- patients deriving clinical benefit [1]: three patients
- disease stabilization, patients [2]: 12
- partial response, patients [2]: Five patients

SMILES: CC[C@@]1(O)C(=O)OCc2c1cc1n(c2=O)Cc2cc3c(CN(C)C)c(O)ccc3nc2-1 [topotecan]
- Best overall response: Complete response, % of patients (refractory solid tumors; [5]): 0%
- Best overall response: Not evaluable, % of patients (refractory solid tumors; [5]): 21.4%
- Best overall response: Not evaluable, No. of Patients (refractory solid tumors; [5]): 6
- Best overall response: Partial response, % of patients (refractory solid tumors; [5]): 7% and 7.1%
- Best overall response: Progressive disease, % of patients (refractory solid tumors; [5]): 29% and 28.6%
- Best overall response: Progressive disease, No. of Patients (refractory solid tumors; [5]): 8
- Best overall response: Stable disease, % of patients (refractory solid tumors; [5]): 42.9%
- Best overall response: Stable disease, No. of Patients (refractory solid tumors; [5]): 12
- Best overall response: Complete response, No. of Patients (refractory solid tumors; [6]): 0
- Best overall response: Not evaluable, No. of Patients (refractory solid tumors; [6]): 1
- Best overall response: Partial response, No. of Patients (refractory solid tumors; [6]): 0
- Best overall response: Progressive disease, No. of Patients (refractory solid tumors; [6]): 4
- Best overall response: Stable disease, No. of Patients (refractory solid tumors; [6]): 3
- Best overall response: Complete response, No. of Patients (refractory solid tumors; [7]): 0
- Best overall response: Not evaluable, No. of Patients (refractory solid tumors; [7]): 4
- Best overall response: Partial response, No. of Patients (refractory solid tumors; [7]): 1
- Best overall response: Progressive disease, No. of Patients (refractory solid tumors; [7]): 4
- Best overall response: Stable disease, No. of Patients (refractory solid tumors; [7]): 5
- Best overall response: Complete response, No. of Patients (refractory solid tumors; [8]): 0
- Best overall response: Not evaluable, No. of Patients (refractory solid tumors; [8]): 1
- Best overall response: Partial response, No. of Patients (refractory solid tumors; [8]): 1
- Best overall response: Progressive disease, No. of Patients (refractory solid tumors; [8]): 0
- Best overall response: Stable disease, No. of Patients (refractory solid tumors; [8]): 4
- CLrenal, Mean (SD) ([3]; Cycle 1 (without erlotinib)): 4.95 (2.38) L/h/m^2
- CLrenal, Median ([3]; Cycle 1 (without erlotinib)): 4.61 L/h/m^2
- CLrenal, Range ([3]; Cycle 1 (without erlotinib)): 1.29–9.12 L/h/m^2
- CL, Mean (SD) ([3]; Cycle 1 (without erlotinib)): 9.41 (3.40) L/h/m^2
- CL, Median ([3]; Cycle 1 (without erlotinib)): 8.55 L/h/m^2
- CL, Range ([3]; Cycle 1 (without erlotinib)): 4.11–14.7 L/h/m^2
- Dosage-normalized AUC, Range ([3]; Cycle 1 (without erlotinib)): 35.1 to 142 ng·h/mL
- CLrenal, Mean (SD) ([3]; Cycle 2/3 (with erlotinib)): 4.07 (1.87) L/h/m^2
- CLrenal, Median ([3]; Cycle 2/3 (with erlotinib)): 3.84 L/h/m^2
- CLrenal, Range ([3]; Cycle 2/3 (with erlotinib)): 1.04–7.04 L/h/m^2
- CL, Mean (SD) ([3]; Cycle 2/3 (with erlotinib)): 8.60 (3.04) L/h/m^2
- CL, Median ([3]; Cycle 2/3 (with erlotinib)): 8.57 L/h/m^2
- CL, Range ([3]; Cycle 2/3 (with erlotinib)): 3.56–14.6 L/h/m^2
- Dosage-normalized AUC, Range ([3]; Cycle 2/3 (with erlotinib)): 51.4 to 237.2 ng·h/mL
- mean (terminal) clearance of topotecan, lower in Cycle 2/3 compared to Cycle 1 ([3]; with erlotinib vs without, p = 0.17): 8.6%
- mean renal clearance of topotecan, decrease in Cycle 2/3 compared to Cycle 1 ([3]; with erlotinib vs without, p = 0.21): 17.8%
- mean dosage-normalized AUC of topotecan, higher in Cycle 2/3 than in Cycle 1 ([3]; with erlotinib vs without, p = 0.45): 8.0%
- maximum tolerated dosage (MTD) of topotecan [4]: 1.0 mg/m^2

SMILES: C#Cc1cccc(Nc2ncnc3cc(OCCOC)c(OCCOC)cc23)c1 [erlotinib]
- effect of erlotinib on topotecan clearance / disposition ([3]; erlotinib 150 mg daily, oral): does not affect the disposition of topotecan to a clinically significant extent; also recorded: did not have a clinically significant effect on topotecan clearance or exposure; also recorded: no significant effect on topotecan systemic clearance
